Source: US20160082036A1, “HYDROXYALKYL STARCH FOR THE TREATMENT OF CANCERS BY REDUCTION OF TUMOR GROWTH RATES” (Fresenius Kabi Deutschland GmbH, priority 2012, published 2016)

How the values were obtained:
[1] = test system: human breast cell carcinoma line MT-3; test: Example 1: MT-3 xenograft tumor growth after single i.v. injection; format: in vivo
Description: Summary: Mice were either treated with a single i.v. injection of docetaxel (Taxotere®) at a dose of 25 mg/kg or with the plasma expander Voluven® (20 ml/kg) or with “HES 100/1.0” (approx. 740 mg/kg) dissolved in saline to determine tumor growth and body weight over the course of the experiment.
Docetaxel (available under the name Taxotere®) was obtained from Sanofi-Aventis Deutschland GmbH, (Lot CHB D9C895; Berlin, Germany) and was stored in the dark at −20° C. until use. […] “HES 100/1.0” (as specified in table 2 above) was dissolved in saline.
The final solution of docetaxel was prepared immediately before injection by mixing an appropriate volume of the original stock solution provided by Sanofi (20 mg/ml) with saline (0.9% NaCl, B. Braun Melsungen AG, Melsungen, Germany) as indicated in table 4 below. Saline was mixed with absolute ethanol to obtain an approx. 6.25% solution, the original vehicle of Taxotere®. Voluven® was used in the original formulation described above.
(§1) Adult female NMRI:nu/nu mice (TACONIC Europe, Lille Skensved, Denmark) bred in the own (EPO) colony were used throughout the study.
The MT-3 cell line was used for subcutaneous (s.c.) xenotransplantation in immune deficient female NMRI:nu/nu mice. […]
On study day 0 each 5×10^6 tumor cells were transplanted s.c. into the flank of each mouse. The animals were monitored for tumor growth and when tumors were palpable, generally between day 7 and day 10 after transplantation, mice were randomised into the treatment groups. […]
Individual tumor diameters were measured two times weekly with a calliper. Tumor volumes were calculated according to V=(length×(width)^2)/2. […] At each measurement day the median and mean tumor volumes per group and also the treated to control (T/C RTV) values in percent were calculated. […]

[2] = test system: human breast cell carcinoma line MT-3; test: Example 2: MT-3 xenograft tumor growth after single i.v. injection; format: in vivo
Description: Summary: Mice were either treated with a single i.v. injection of docetaxel (Taxotere®) at a dose of 25 mg/kg or with the plasma expander Voluven® (20 ml/kg) or with HES 100/1.0 (approx. 740 mg/kg) dissolved in saline/EtOH to determine tumor growth and body weight over the course of the experiment.
Docetaxel (available under the name Taxotere®) was obtained from Sanofi-Aventis Deutschland GmbH, (Lot CHB D9C895; Berlin, Germany) and was stored in the dark at −20° C. until use. […] HES 100/1.0 (as specified in table 2 above) was dissolved in saline/EtOH.
The final solution of docetaxel was prepared immediately before injection by mixing an appropriate volume of the original stock solution provided by Sanofi (20 mg/ml) with saline (0.9% NaCl, B. Braun Melsungen AG, Melsungen, Germany) as indicated in the table 6 below. Saline was mixed with absolute ethanol to obtain an approx. 6.25% solution, the original vehicle of Taxotere®. Voluven® was used in the original formulation described above.
as §1
The MT-3 cell line was used for subcutaneous (s.c.) xenotransplantation in immune deficient female NMRI:nu/nu mice. The MT-3 breast carcinoma cell line was obtained from the tumor bank of the National Cancer Institute of the former USSR, WONZ, Moscow (Naundorf H. Rewasowa E. Fichtner I et al. Characterization of two human mammary carcinomas, MT-1 and MT-3, suitable for in vivo testing of ether lipids and their derivatives. Breast Cancer Res Treat. 1992; 23:87-95).
The cells are cryo-preserved within the EPO tumor bank. Cells were thawed, expanded by in vitro culture and transplanted s.c. as cell suspension (5×10^6 tumor cells/mouse in 200 μl).
On study day 0 each 5×10^6 tumor cells were transplanted s.c. into the flank of each mouse. The animals were monitored for tumor growth and when tumors were palpable, about day 7 after inoculation, mice were randomised into the treatment groups.
The application volume was 10 ml/kg (approx. 200 μl/20 g mouse) mouse body weight for vehicle, HES 100/1.0 and docetaxel and 20 ml/kg for Voluven®. The route of administration was by intravenous (i.v.) injection into the tail vein.
Individual tumor diameters were measured two times weekly with a calliper. Tumor volumes were calculated according to V=(length×(width)^2)/2. For calculation of the relative tumor volume (RTV) the tumor volumes at each measurement day were related to the day of first treatment. At each measurement day the median and mean tumor volumes per group and also the treated to control (T/C RTV) values in percent were calculated.
Mice were sacrificed when tumors reached a mean size above 1 cm^3 per group. On the day of necropsy mice were sacrificed by cervical dislocation and inspected for gross organ changes.
Statistical evaluation of was performed with the U-test of Mann and Whitney using the Windows program […] 6. A significance level of p<0.05 was used.

[3] = single i.v. dose at day 7 after inoculation, MT-3 s.c. in NMRI:nu/nu mice, in cm3 (unit assumed)

`CC(=O)O[C@@]12CO[C@@H]1C[C@H](O)[C@@]1(C)C(=O)[C@H](O)C3=C(C)[C@@H](OC(=O)[C@H](O)[C@@H](NC(=O)OC(C)(C)C)c4ccccc4)C[C@@](O)([C@@H](OC(=O)c4ccccc4)[C@H]21)C3(C)C` [Docetaxel] was tested, and the “Tumor volume (mean) at day 34” value [1, 3] was 0.930 ± 0.395, the “Tumor volume (mean) nadir” value [1, 3] was 0.072 ± 0.047 and the “inhibition of tumor growth (in words)” value ([1]; single i.v. treatment, compared to control group, FIG. 4) was “significant inhibition of tumor growth”. The “tumor size at day 8” value ([2]; day 8 after inoculation (day of dosing)) was 0.0866 cm^3, the “Tumor volume (mean) cm^3/day 25” value ([2]; single i.v. dose at day 8 after inoculation) was 0.343 cm^3 and the “tumor size at day 10” value ([2]; single i.v. dose day 8) was 0.1046 cm^3. For the same molecule, the “tumor size at day 15” value ([2]; single i.v. dose day 8) was 0.1228 cm^3, the “tumor size at day 18” value ([2]; single i.v. dose day 8) was 0.1995 cm^3 and the “tumor size at day 22” value ([2]; single i.v. dose day 8) was 0.2465 cm^3. For the same molecule, the “tumor size at day 25” value ([2]; single i.v. dose day 8) was 0.3430 cm^3 and the “inhibition of tumor growth (in words)” value ([2]; single i.v. treatment, compared to control group, table 8, FIG. 2) was “significant inhibition of tumor growth”.
